Test results published in patent US12492163B2, “9H-fluorene derivatives or their pharmaceutically acceptable salts” (priority 2020, dated 2025).

Legend:
mGAT3 = mGAT3 (Mus musculus (Mouse), UniProt P31649); experiment: [3H]GABA uptake inhibition, mGAT3 in HEK293 cells; format: cell-based; settings: for percentage of [3H]GABA reuptake retained, mGAT3: inhibitor at 100 μM, remaining reuptake
Procedure: (§1) Exemplary compounds according to the invention were screened at the Ludwig-Maximilian University of Munich to determine the inhibitory ability towards four mouse GAT transporters (mGAT1-mGAT4). […] The biological material was stably transfected human embryonic kidney HEK293 cells, expressing genes to the appropriate transporters. The generated radioactivity was measured with a liquid scintillation counter. […] These determinations were made according to the procedure described in detail in A. Kragler, G. Höfner, K. T. Wanner, Novel parent structures for inhibitors of the murine GABA transporters mGAT3 and mGAT4, Eur. J. Pharmacol. 519 (2005) 43-47.

mGAT2 = mGAT2 (Mus musculus (Mouse), UniProt P31651); experiment: [3H]GABA uptake inhibition, mGAT2 in HEK293 cells; format: cell-based; settings: for percentage of [3H]GABA reuptake retained, mGAT2: inhibitor at 100 μM, remaining reuptake; for pIC50 (+/−SEM) mGAT2 / IC50: GABA reuptake; for IC50: read-out: pIC50 (+/−SEM) mGAT2 (converted)
Procedure: as §1

[1] = target: human plasma butyrylcholinesterase (hBuChE) (Homo sapiens (Human), UniProt P06276); experiment: Ellman's test, inhibition of human plasma butyrylcholinesterase; format: biochemical; settings: for inhibition at 1 µM: 1 μM inhibitor concentration, read-out: hBuChE % inh
Procedure: (§2) The spectrophotometric Ellman's test [Ellman et al.] modified for assays in 96-well plates was used to test the activity. Reagents: 5,5′-dithiobis-(2-nitrobenzoic acid) (DTNB), eqBuChE and butyrylthiocholine iodide (BTC) were purchased from Sigma-Aldrich (Steinheim, Germany). hBuChE was from Vivonics (Bedford, MA, USA). The enzymes were prepared by dissolving in demineralized water to a concentration of 0.384 U/ml. Stock solutions of test compounds were prepared by dissolving in DMSO to a concentration of 0.0034 M. They were then diluted with water to obtain the appropriate concentrations in the wells. In the first step of the test, 25 μl of test compound (or DMSO/water mixture at the appropriate ratio for blank samples) was incubated in 0.1 M phosphate buffer (200 μl, pH=8.0) with DTNB (20 μl; 0.0025M) and with the appropriate enzyme (20 μl; eqBuChE or hBuChE) at 25° C. (animal enzyme) or 36° C. (human enzyme). After a 5 minutes incubation period, 20 μl of BTC solution (0.00375 M) was added. After another 5 minutes, the changes in absorbance of the solutions were measured at 412 nm using a multifunctional microplate reader (EnSpire Multimode; PerkinElmer; Waltham, MA, USA). All compounds were tested at a screening concentration of 10 μM (eqBuChE) or 1 μM (hBuChE). The percentage of enzyme inhibition was calculated from the equation 100-(S/B)×100, where S and B were the enzymatic activity in the test sample well and in the well without sample, respectively. […] All reactions were performed in triplicate. IC50 values were calculated using non-linear regression (GraphPad Prism 5 [GraphPad Software, San Diego, CA, USA 5.00]) for the percentage of enzyme inhibition against the inhibitor concentration used. Tacrine and donepezil were used as reference compounds.

mGAT1 = mGAT1 (Mus musculus (Mouse), UniProt P31648); experiment: [3H]GABA uptake inhibition, mGAT1 in HEK293 cells; format: cell-based
Procedure: as §1

[2] = target: Recombinant human Aβ1-42 peptide (Homo sapiens (Human), UniProt P05067); experiment: Thioflavin T test, antiaggregation activity against beta-amyloid; format: biochemical; settings: 10 μM test compound, 1.5 μM Aβ1-42; read-out: inh. Aβ aggr. % inh
Procedure: The thioflavin T test [Levine III] was used for the determinations. Recombinant human Aβ1-42 peptide (HFIP pretreated, Merck Millipore, Darmstadt, Germany) was dissolved in DMSO to form a 75 μM stock solution. The solution was further diluted in HEPES buffer (150 mM HEPES, pH 7.4, 150 mM NaCl) to a concentration of 7.5 μM. Then, the Aβ1-42 solution was added to the test compounds (black 96-well plates were used) and diluted with thioflavin T solution (10 μM final concentration). The final mixture contained 1.5 μM Aβ1-42, 10 μM test compound, and 3% of DMSO. Fluorescence was measured every 300 s (excitation wavelength was 440 nm, emission wavelength was 490 nm) with continuous mixing between measurements. A multifunction microplate reader (Synergy H4; BioTek Instruments, Inc., Winooski, VT, USA) was used to measure the fluorescence. Fluorescence started increasing after approximately 4 hours, plateaued after 20 hours and remained virtually unchanged for the next 28 hours of incubation. The plateau-phase fluorescence intensities (in the presence and absence of test compounds) were averaged and the mean fluorescence values for the respective wells at t=0 h were subtracted from them. […] IC50 values were calculated using non-linear regression (GraphPad Prism 5 [GraphPad Software, San Diego, CA, USA 5.00]) for the percentage of aggregation inhibition against the inhibitor concentration used.

mGAT4 = mGAT4 (Mus musculus (Mouse), UniProt P31650); experiment: [3H]GABA uptake inhibition, mGAT4 in HEK293 cells; format: cell-based; settings: for IC50 / pIC50 (+/−SEM) mGAT4: GABA reuptake; for IC50: read-out: pIC50 (+/−SEM) mGAT4 (converted); for percentage of [3H]GABA reuptake retained, mGAT4: inhibitor at 100 μM, remaining reuptake
Procedure: as §1

[3] = target: horse plasma butyrylcholinesterase (eqBuChE) (Equus caballus (Horse), UniProt P81908); experiment: Ellman's test, inhibition of horse plasma butyrylcholinesterase; format: biochemical
Procedure: as §2

[4] = target: human recombinant beta-secretase (hBACE1) (Homo sapiens (Human), UniProt P56817); experiment: FRET assay, inhibition of human recombinant beta-secretase; format: biochemical; settings: for inhibition at 50 µM: 50 μM inhibitor concentration, read-out: hBACE-1 % inh; for IC50: read-out: hBACE-1 IC50
Procedure: The FRET assay [Vassar, et al.] was used to test activity using 384-well black plates and a microplate reader (EnSpire Multimode; PerkinElmer; Waltham, MA, USA). The test was purchased from Life Technologies Polska Sp. z o.o. (Warsaw, Poland). […] Stock solutions of test compounds were prepared in DMSO and then further diluted with assay buffer (50 mM sodium acetate; pH 4.5) to the appropriate concentrations in the wells. In the first step of the test, 10 μl of the substrate (Rh-[…] quencher, based on the so-called Swedish APP mutation) was mixed with 10 μl of the test compound (or assay buffer; for blank sample). The enzyme reaction was initiated by adding 10 μl of enzyme (hBACE1, 1 U/ml). The reaction mixture was incubated at 25° C. for 60 minutes, then 10 μL of Stop solution (2.5 M sodium acetate) was added. After stopping the reaction, fluorescence was measured at 576 nm. The percentage of enzyme inhibition was calculated from the formula [1−(S60−S0)/(C60−C0)]×100, where S0 and S60 are the fluorescence of the test sample (containing the enzyme, substrate and test compound) at the start of the reaction and after 60 minutes, respectively, whereas C0 and C60 were analogous fluorescence intensities in the blank samples (containing enzyme, substrate and buffer). All test compounds were tested at a concentration of 50 μM in triplicate. […] A BACE1 IV inhibitor (Calbiochem, Merck; Nottingham, UK) [Stachel et al.] was used as a reference compound. […] IC50 values for all test compounds were calculated using non-linear regression (GraphPad Prism 5 [GraphPad Software, San Diego, CA, USA 5.00]) for the percentage of enzyme inhibition against the inhibitor concentration used.

Chain of human plasma butyrylcholinesterase (hBuChE) (P06276 29-602): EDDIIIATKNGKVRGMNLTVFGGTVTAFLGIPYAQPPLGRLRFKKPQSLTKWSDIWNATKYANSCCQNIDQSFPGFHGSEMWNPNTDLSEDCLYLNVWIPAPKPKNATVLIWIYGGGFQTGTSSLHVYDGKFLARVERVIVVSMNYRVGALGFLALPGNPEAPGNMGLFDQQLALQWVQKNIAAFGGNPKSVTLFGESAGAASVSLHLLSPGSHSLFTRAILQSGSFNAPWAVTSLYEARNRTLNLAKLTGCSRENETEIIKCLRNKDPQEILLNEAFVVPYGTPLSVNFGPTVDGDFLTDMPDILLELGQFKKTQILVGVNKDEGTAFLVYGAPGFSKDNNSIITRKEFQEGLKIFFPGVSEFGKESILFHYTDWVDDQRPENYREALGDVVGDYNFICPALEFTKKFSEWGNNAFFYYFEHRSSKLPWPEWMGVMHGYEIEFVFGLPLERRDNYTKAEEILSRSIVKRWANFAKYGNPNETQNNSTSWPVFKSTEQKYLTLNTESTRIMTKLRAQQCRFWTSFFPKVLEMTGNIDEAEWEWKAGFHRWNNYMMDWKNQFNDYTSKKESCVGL
Chain of horse plasma butyrylcholinesterase (eqBuChE) (P81908 whole entry): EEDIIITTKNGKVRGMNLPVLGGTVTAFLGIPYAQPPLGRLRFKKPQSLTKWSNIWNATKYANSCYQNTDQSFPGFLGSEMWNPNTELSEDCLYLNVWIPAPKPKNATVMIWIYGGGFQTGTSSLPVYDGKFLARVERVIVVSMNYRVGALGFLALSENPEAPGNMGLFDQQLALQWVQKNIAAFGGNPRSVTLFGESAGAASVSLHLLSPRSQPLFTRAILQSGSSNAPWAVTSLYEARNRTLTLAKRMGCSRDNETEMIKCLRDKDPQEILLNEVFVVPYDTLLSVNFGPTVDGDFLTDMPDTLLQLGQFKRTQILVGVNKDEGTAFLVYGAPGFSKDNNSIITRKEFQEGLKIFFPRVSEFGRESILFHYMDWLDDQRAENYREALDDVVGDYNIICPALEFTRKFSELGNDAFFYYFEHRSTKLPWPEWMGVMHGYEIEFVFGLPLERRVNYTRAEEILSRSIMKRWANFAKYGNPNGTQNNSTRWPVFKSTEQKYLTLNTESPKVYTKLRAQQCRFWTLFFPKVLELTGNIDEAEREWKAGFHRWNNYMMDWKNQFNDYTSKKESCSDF
Chain of mGAT4 (P31650 whole entry): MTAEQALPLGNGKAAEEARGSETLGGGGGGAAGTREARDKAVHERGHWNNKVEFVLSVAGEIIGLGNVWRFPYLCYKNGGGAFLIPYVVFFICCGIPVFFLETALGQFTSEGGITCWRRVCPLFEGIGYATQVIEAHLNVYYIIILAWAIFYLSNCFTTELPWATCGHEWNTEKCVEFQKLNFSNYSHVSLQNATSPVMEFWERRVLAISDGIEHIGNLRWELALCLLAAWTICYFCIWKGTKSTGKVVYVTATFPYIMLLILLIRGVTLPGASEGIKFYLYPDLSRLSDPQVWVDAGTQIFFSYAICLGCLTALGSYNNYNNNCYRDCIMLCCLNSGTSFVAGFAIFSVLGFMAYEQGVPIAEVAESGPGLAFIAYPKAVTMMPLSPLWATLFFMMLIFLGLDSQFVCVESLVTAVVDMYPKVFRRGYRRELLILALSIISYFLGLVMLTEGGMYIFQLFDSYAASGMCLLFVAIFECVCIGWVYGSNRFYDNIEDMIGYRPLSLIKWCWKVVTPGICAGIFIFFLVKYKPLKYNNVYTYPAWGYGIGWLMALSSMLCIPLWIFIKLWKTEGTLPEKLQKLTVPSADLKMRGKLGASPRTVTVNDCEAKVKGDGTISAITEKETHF
Chain of mGAT2 (P31651 whole entry): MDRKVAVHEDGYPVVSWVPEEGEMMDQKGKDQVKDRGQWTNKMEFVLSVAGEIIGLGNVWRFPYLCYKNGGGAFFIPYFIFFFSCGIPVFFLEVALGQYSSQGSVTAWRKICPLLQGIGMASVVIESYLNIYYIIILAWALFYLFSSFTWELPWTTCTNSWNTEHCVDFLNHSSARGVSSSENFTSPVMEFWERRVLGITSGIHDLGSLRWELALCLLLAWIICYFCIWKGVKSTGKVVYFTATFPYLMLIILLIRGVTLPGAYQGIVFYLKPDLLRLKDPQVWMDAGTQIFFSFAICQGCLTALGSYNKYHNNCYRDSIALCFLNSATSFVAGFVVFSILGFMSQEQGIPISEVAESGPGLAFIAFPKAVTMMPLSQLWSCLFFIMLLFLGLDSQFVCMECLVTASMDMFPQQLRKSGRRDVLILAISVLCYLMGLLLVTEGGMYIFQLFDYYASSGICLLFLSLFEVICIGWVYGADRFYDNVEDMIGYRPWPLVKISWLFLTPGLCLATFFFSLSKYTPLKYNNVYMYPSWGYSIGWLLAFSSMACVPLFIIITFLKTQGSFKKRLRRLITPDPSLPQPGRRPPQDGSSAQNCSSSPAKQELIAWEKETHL
Chain of Recombinant human Aβ1-42 peptide (P05067 672-713): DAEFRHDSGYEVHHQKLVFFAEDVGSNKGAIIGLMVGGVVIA
Chain of human recombinant beta-secretase (hBACE1) (P56817 46-501): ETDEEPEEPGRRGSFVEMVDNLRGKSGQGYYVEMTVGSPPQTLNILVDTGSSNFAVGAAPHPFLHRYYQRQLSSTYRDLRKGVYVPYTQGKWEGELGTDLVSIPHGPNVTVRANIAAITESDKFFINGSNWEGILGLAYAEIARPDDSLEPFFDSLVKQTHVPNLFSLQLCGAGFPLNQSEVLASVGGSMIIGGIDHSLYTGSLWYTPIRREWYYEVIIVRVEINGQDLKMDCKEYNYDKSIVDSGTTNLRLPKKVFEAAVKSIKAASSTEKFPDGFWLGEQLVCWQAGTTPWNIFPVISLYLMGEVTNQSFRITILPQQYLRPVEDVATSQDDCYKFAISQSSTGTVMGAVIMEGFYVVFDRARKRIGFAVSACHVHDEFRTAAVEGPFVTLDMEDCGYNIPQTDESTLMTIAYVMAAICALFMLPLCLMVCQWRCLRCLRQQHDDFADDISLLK
Chain of mGAT3 (P31649 whole entry): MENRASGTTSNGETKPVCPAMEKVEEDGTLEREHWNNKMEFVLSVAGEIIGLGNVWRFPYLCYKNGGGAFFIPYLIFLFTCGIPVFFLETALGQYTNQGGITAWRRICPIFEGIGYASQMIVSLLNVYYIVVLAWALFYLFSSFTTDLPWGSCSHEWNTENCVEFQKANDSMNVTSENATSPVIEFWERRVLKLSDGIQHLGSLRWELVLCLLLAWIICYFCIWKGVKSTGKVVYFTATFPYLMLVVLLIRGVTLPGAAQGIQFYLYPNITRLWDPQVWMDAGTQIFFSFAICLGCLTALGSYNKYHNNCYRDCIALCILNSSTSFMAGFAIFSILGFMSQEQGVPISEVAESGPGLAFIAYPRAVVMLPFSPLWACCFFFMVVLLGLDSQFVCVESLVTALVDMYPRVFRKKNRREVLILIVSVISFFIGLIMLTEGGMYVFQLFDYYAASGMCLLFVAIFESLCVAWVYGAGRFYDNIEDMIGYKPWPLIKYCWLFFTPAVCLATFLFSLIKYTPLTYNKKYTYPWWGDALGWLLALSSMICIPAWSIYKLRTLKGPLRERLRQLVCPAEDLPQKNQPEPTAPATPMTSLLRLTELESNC

SMILES	pIC50 (+/−SEM) mGAT3 (mGAT3; GABA reuptake)	percentage of [3H]GABA reuptake retained, mGAT2 (mGAT2)	inhibition at 1 µM [1]	pIC50 (+/−SEM) mGAT1 (mGAT1; GABA reuptake)	inhibition at 10 µM [2]	IC50 (mGAT4)	IC50 [3]	inhibition at 50 µM [4]	pIC50 (+/−SEM) mGAT2 (mGAT2)	percentage of [3H]GABA reuptake retained, mGAT1 (mGAT1; inhibitor at 100 μM, remaining reuptake)	percentage of [3H]GABA reuptake retained, mGAT4 (mGAT4)	IC50 [4]	IC50 (mGAT3; GABA reuptake, read-out: pIC50 (+/−SEM) mGAT3 (converted))	IC50 (mGAT2)	IC50 (mGAT1; GABA reuptake, read-out: pIC50 (+/−SEM) mGAT1 (converted))	IC50 [1]	pIC50 (+/−SEM) mGAT4 (mGAT4)	percentage of [3H]GABA reuptake retained, mGAT3 (mGAT3)	inhibition at 10 µM ([3]; 10 μM inhibitor concentration, read-out: eqBuChE percent inhibition of enzyme)
CC(C)(C)c1ccc(CNC[C@H](O)[C@H](Cc2ccccc2)NC(=O)CC2c3ccccc3-c3ccccc32)cc1 [Compound 19, N-((2S,3S)-4-((4-(tert-butyl)benzyl)amino)-3-hydroxy-1-phenylbutan-2-yl)-2-(9H-fluoren-9-yl)acetamide]	4.90	114%	77.1%	4.90	86.7%	15.5 µM	3.02 µM	78.3%	–	–	–	–	–	–	–	–	–	–	–
O[C@@H](CNCC1CCCCC1)[C@H](Cc1ccccc1)NC1c2ccccc2-c2ccccc21 [Compound 11, (2S,3S)-3-((9H-fluoren-9-yl)amino)-1-((cyclohexylmethyl)amino)-4-phenylbutan-2-ol]	4.94	–	76.5%	–	78.6%	–	0.955 µM	–	4.97	54%	59%	8.6 µM	–	–	–	–	–	–	–
COc1ccccc1CNC[C@H](O)[C@H](Cc1ccccc1)NC(=O)CC1c2ccccc2-c2ccccc21 [Compound 20, 2-(9H-fluorene-9-yl)-N-((2S,3S)-3-hydroxy-4-((2-methoxybenzyl)amino)-1-phenylbutan-2-yl)acetamide]	–	–	74.5%	–	< 10%	4.07 µM	2.2 µM	71.1%	–	–	–	–	8.32 µM	9.12 µM	9.55 µM	–	–	–	–
O[C@H](CNCc1ccccc1)[C@H](Cc1ccccc1)NC1c2ccccc2-c2ccccc21 [Compound 1, (2R,3S)-3-((9H-fluoren-9-yl)amino)-1-(benzylamino)-4-phenylbutan-2-ol]	5.15+/− 0.07	–	–	4.96	82.5%	–	0.627 µM	–	5.01 +/− 0.08	–	–	10.1 µM	–	–	–	0.196 µM	5.11 +/− 0.01	–	–
C[C@H](NC[C@@H](O)[C@H](Cc1ccccc1)NC(=O)CC1c2ccccc2-c2ccccc21)c1ccccc1 [Compound 23, 2-(9H-fluoren-9-yl)-N-((2S,3R)-3-hydroxy-1-phenyl-4-(((S)-1-phenylethyl)amino)butan-2-yl)acetamide]	–	–	–	4.73	59.4%	–	8.86 µM	–	–	–	61%	7.36 µM	–	14.5 µM	–	0.558 µM	–	59%	–
COc1cccc(CNC[C@H](O)[C@H](Cc2ccccc2)NC2c3ccccc3-c3ccccc32)c1 [Compound 6, (2S,3S)-3-((9H-fluoren-9-yl)amino)-1-((3-methoxybenzyl)amino)-4-phenylbutan-2-ol]	–	–	67.7%	5.15	93.3%	–	2.2 µM	–	4.92 +/− 0.14	–	–	2.25 µM	–	–	–	–	5.15 +/− 0.034	66%	–
COc1ccccc1CNC[C@H](O)[C@H](Cc1ccccc1)NC1c2ccccc2-c2ccccc21 [Compound 7, (2S,3S)-3-((9H-fluoren-9-yl)amino)-1-((2-methoxybenzyl)amino)-4-phenylbutan-2-ol]	–	–	–	5.20	86.7%	–	0.278 µM	–	4.88 +/− 0.07	–	–	7.23 µM	–	–	–	0.268 µM	5.21 +/− 0.04	65%	–
O=C(CC1c2ccccc2-c2ccccc21)N[C@@H](Cc1ccccc1)[C@@H](O)CNCc1ccccc1 [Compound 17, N-((2S,3S)-4-(benzylamino)-3-hydroxy-1-phenylbutan-2-yl)-2-(9H-fluorene-9-yl)acetamide]	4.93	–	66.4%	4.85	42.5%	7.24 µM	1.76 µM	–	–	–	–	11.5 µM	–	15.8 µM	–	–	–	–	–
O=C(CC1c2ccccc2-c2ccccc21)N[C@@H](Cc1ccccc1)[C@H](O)CNCC1CC1 [Compound 28, N-((2S,3R)-4-((cyclopropylmethyl)amino)-3-hydroxy-1-phenylbutan-2-yl)-2-(9H-fluoren-9-yl)acetamide]	5.09	10%	–	4.87	73.4%	12.6 µM	1.19 µM	–	–	–	–	12.3 µM	–	–	–	0.246 µM	–	–	–
CC(C)(C)c1cccc(CNC[C@@H](O)[C@H](Cc2ccccc2)NC2c3ccccc3-c3ccccc32)c1 [Compound 3, (2R,3S)-3-((9H-fluoren-9-yl)amino)-1-((3-(tert-butyl)benzyl)amino)-4-phenylbutan-2-ol]	5.05 +/− 0.05	–	68%	4.83	90.9%	–	–	–	4.58	–	56%	6.35 µM	–	–	–	–	–	–	78.2%
